Test results from US20250360108A1, “CATALYTIC INHIBITOR OF PROTEIN PHOSPHATASE 5 ACTIVATES THE EXTRINSIC APOPTOTIC PATHWAY BY DISRUPTING COMPLEX II” (The Research Foundation for the State University of New York, priority 2022, published 2025).

What was measured:
786-O cells [1] = experiment: Cell viability / proliferation MTT assay; type: cell-based, human; settings: varying doses, 48 hrs
Experimental: Cell Viability Assay: Renal cancer cell lines 786-O, Caki-2, Caki-1, and A498 as well as the normal renal cell line HK-2 were plated at 10,000 cells per well in 96-well plates. […] After 24 or 48 hrs, cell viability assay was performed using the Quick Cell Proliferation Kit Plus (BioVision) according to the manufacturer's protocol. The absorbance at 450 nm was measured on a Tecan Infinite M200 Pro and proliferation rate was calculated.

786-O cells [2] = experiment: Induction of apoptosis by immunoblotting of apoptotic markers; type: cell-based, human
Experimental: Method Details Cell Transfection and Treatment: Cultured cells were split and then transfected the following day when about 40% confluent with each construct using Mirus TranslT-2020 (MirusBio) according to manufacturer's protocol. Cells were incubated at 37° C. and then extracted or collected for analysis after 24 hrs (HEK293) or 72 hrs (ccRCC cell lines). Short interfering RNA (siRNA) scramble control and PPP5C (PP5) targeting duplexes were purchased from OriGene (SKU: SR321403A, SR321403B, and SR321403C). Indicated cells were transiently transfected with the siRNA using Mirus TranslT-2020. For PP5 knock-down, either 30 nM of control siRNA or 10 nM of each PP5 siRNA duplex (A, B and C) were mixed prior to transfection. Cells were incubated at 37° C. for 72 hrs, then harvested for protein extraction. […] Cells were then harvested for protein extraction.
Protein Extraction, Immunoprecipitation and Immunoblotting: Protein extraction from mammalian cells was carried out using methods previously described. Cell lysates were quantified using 1× Bradford reagent (Biorad). For immunoprecipitation, cell lysates were incubated with anti-FLAG antibody conjugated beads (Sigma) or anti-HA conjugated beads (ThermoFisher Scientific) at 4° C. for 2 hrs. Endogenous IPs were achieved by incubating lysate with anti-PP5 antibody (Cell Signaling), anti-FADD antibody (Cell Signaling), or anti-RIPK1 antibody (Cell Signaling) overnight followed by protein G agarose (Invitrogen) at 4° C. for 2 hrs. Immunopellets were washed 4 times with fresh lysis buffer (20 mM Tris-HCl (pH 7.4), 100 mM NaCl, 1 mM MgCl2, 0.1% NP40, protease inhibitor cocktail (Roche), and PhosSTOP (Roche)) and eluted in 5× Laemmli buffer. Precipitated proteins were separated by SDS-PAGE and transferred to nitrocellulose membranes. Co-immunoprecipitated proteins or proteins from cell lysate were detected with antibodies recognizing FLAG, 6×-His (ThermoFisher Scientific), GAPDH (ENZO Life Sciences), Cdc37 (StressMarq), GR, phospho-GR (S211), PP5, caspase-3, cleaved caspase-3, caspase-8, cleaved caspase-8, cleaved caspase-7, cleaved-PARP, phospho-RIPK1 (S166), phospho-FADD (S194), PP2A-C, VHL (Cell Signaling), phospho-RIPK1 (S161) (Invitrogen), PP5 and phospho-Cdc37 (S13) (Abcam). Secondary antibodies raised against mouse and rabbit (Cell Signaling) were used (See Key Resources Table).

recombinant PP5-His6 [3] = target: T1, recombinant PP5-His6 (Homo sapiens, UniProt P53041); experiment: P13-BODIPY binding to PP5 by fluorescence anisotropy; settings: measured with 10 nM BODIPY-labeled P13, one-site fit; read-out: binding affinity to PP5
T1 construct: GST (N, cleaved yes); made in house
T1 sequence (P53041 1-499): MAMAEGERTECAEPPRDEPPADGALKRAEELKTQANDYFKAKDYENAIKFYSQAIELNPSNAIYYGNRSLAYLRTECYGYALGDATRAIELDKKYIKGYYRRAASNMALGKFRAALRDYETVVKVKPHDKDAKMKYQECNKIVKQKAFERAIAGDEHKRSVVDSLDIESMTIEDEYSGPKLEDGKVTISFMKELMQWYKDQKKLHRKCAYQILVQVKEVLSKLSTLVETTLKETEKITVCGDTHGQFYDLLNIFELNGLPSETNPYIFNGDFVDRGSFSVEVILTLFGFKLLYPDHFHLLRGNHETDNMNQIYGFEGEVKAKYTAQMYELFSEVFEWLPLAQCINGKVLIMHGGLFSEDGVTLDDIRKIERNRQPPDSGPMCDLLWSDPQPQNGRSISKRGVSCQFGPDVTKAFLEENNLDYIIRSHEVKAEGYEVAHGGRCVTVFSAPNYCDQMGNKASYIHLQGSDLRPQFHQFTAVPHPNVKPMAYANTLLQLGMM
Experimental: We next synthesized BODIPY-labelled version of compound P13 (P13-BODIPY) in order to obtain the binding affinity of this inhibitor to PP5 in vitro (FIG. S3A). This was accomplished by coupling the azidopropyl-P13 10 with 4,4-difluoro-5,7-dimethyl-4-bora-3a,4a-diaza-s-indacene-3-propionic acid (BODIPY Acid 13). Using fluorescence anisotropy with recombinant PP5 protein (FIG. S3B), we determined the binding affinity of P13 compound to PP5 to be 376.2±60 nM (FIG. 1H).
Binding Measurements and Anisotropy: Recombinant PP5-His6 at the indicated concentrations was incubated on ice in 100 mM NaCl, 20 mM HEPES pH 8.0, 1% glycerol, 0.2 mM tris(2-carboxyethyl)phosphine (TCEP) and 0.5 mM MnCl2 with 10 nM BODIPY-labeled P13 in 2% DMSO for 30 min in opaque black 96 well plates (Corning). Uncalibrated fluorescence anisotropy was then measured using a SpectraMax i3 equipped with fluorescein anisotropy module (Molecular Devices). Curves were fit to a one-site binding equation using GraphPad Prism version 9.5.0. y=y0+A*x/(Kd+x) where y is measured uncalibrated anisotropy, y0 is the y intercept, A is the amplitude of the curve, x is the concentration of PP5 used, and Kd is the measured dissociation constant. Data are presented as mean±SEM.

recombinant PP5-His6 [4] = target: T1, recombinant PP5-His6; experiment: PP5 Phosphatase Activity and Inhibition Assay (PiPer phosphate release, phospho-S211-GR peptide); type: biochemical; settings: phospho-S211-GR peptide substrate
Experimental: PP5 inhibitors specifically bind to the phosphatase-catalytic domain: We next sought to measure the inhibition of PP5 activity in vitro with P5 and P13.
Bacterial Expression and Protein Purification of PP5: Human PPP5c was cloned into pGEX6P1 with an N-terminal GST tag and C-terminal His6 tag. Transformed cells were grown at 37° C. in LB with 100 mg/L ampicillin until OD600=0.6 and induced with 1 mM IPTG. Cells were harvested by centrifugation and lysed by sonication in lysis buffer (50 mM Hepes (pH 8.0), 150 mM NaCl, 0.5 mM TCEP and EDTA-free protease inhibitor cocktail tablet (Roche)). Lysate was incubated with talon resin (Takara Bio) for 1 hr at 4° C. The resin was washed three times with lysis buffer and PP5 was eluted with lysis buffer containing 250 mM imidazole. Precision protease was added to the elution overnight to cleave the GST tag and the sample was then mixed with Glutathione Sepharose resin (Cytiva) to remove the free GST and un-cleaved protein. The sample was applied to a Superdex S75 16/60 size exclusion column (GE Healthcare) and eluted in 100 mM NaCl, 20 mM Hepes pH 8, 02 mM TCEP.
PP5 Phosphatase Activity and Inhibition Assay: The phosphatase activity of the recombinant PP5-His6 was measured using the PiPer™ Phosphate Assay Kit (Thermo Fisher Scientific) as described in the manufacturer's protocol. Standard curve with linear fit line was created from 0-1 nM Pifinal concentration reactions. 1 nM of PP5-His6 was added to each reaction with indicated amounts of custom synthesized substrate phospho-S211-glucocorticoid receptor (PhosS211-GR) peptide (see Key Resources Table) as specific substrate (Thermo Fisher Scientific). Reactions were run in triplicate and incubated at 37° C. for over 10 min. […] Enzyme kinetics were calculated and plotted using Lineweaver Burk plot and web-based tool (https://www.aatbio.com/tools/ic50-calculator) for calculating IC50 and (https://bioinfo-abcc.ncifcrf.gov/IC50_Ki_Converter/index.php) for converting IC50 to Ki values for inhibitors of enzyme activity and ligand binding.

VHL-null ccRCC cells = experiment: Flow cytometric cell death by propidium iodide staining; type: cell-based, human; settings: 30 or 40 μM; A498 and 786-O versus Caki-1 and Caki-2
Experimental: Flow Cytometric Analysis: Fluorescence-activated cell sorting (FACS) analysis was performed according to the protocol in the Annexin V:FITC kit (Bio-Rad). In brief, cells were plated in 10 cm dish at 0.5×10^6 and incubated at 37° C. for 18 hrs. […] Cells were trypsinized, collected and washed once with 1× binding buffer (included in the kit). Propidium iodide was added, then the cells were immediately run on a Becton Dickinson LSRFortessa instrument (BD Biosciences). Data were analyzed using FlowJo software version 10.7.1 for Windows (BD Biosciences).

S194-FADD = experiment: Phosphorylation of S194-FADD by immunoblot after IC261; type: cell-based, human; settings: 786-O and A498 cells, indicated amounts, 24 hrs
Experimental: Method Details Cell Transfection and Treatment: Cultured cells were split and then transfected the following day when about 40% confluent with each construct using Mirus TranslT-2020 (MirusBio) according to manufacturer's protocol. Cells were incubated at 37° C. and then extracted or collected for analysis after 24 hrs (HEK293) or 72 hrs (ccRCC cell lines). Short interfering RNA (siRNA) scramble control and PPP5C (PP5) targeting duplexes were purchased from OriGene (SKU: SR321403A, SR321403B, and SR321403C). Indicated cells were transiently transfected with the siRNA using Mirus TranslT-2020. For PP5 knock-down, either 30 nM of control siRNA or 10 nM of each PP5 siRNA duplex (A, B and C) were mixed prior to transfection. […]
Protein Extraction, Immunoprecipitation and Immunoblotting: Protein extraction from mammalian cells was carried out using methods previously described. Cell lysates were quantified using 1× Bradford reagent (Biorad). […] Co-immunoprecipitated proteins or proteins from cell lysate were detected with antibodies recognizing FLAG, 6×-His (ThermoFisher Scientific), GAPDH (ENZO Life Sciences), Cdc37 (StressMarq), GR, phospho-GR (S211), PP5, caspase-3, cleaved caspase-3, caspase-8, cleaved caspase-8, cleaved caspase-7, cleaved-PARP, phospho-RIPK1 (S166), phospho-FADD (S194), PP2A-C, VHL (Cell Signaling), phospho-RIPK1 (S161) (Invitrogen), PP5 and phospho-Cdc37 (S13) (Abcam). […]

PP5 = target: T2, PP5 (Homo sapiens, UniProt P53041); settings: cited from earlier work
T2 sequence (P53041 1-499): T1 sequence (P53041 1-499)

PP1 = settings: cited from earlier work
[5] = test system: PP5-FLAG active site point mutants; experiment: Biotin-P13 pulldown of PP5 active site point mutants; type: binding, human; settings: HEK293 lysate
Experimental: (§1) We then mutated docking site residues in the active site of PP5 to obtain further insight into the mechanism of P13 binding to PP5. […] These mutants were transiently expressed in HEK293 cells, and then the protein lysates were challenged with different amounts of biotin-P13 (FIG. 1G).
(§2) Biotin-P5 and biotin-P13 Pulldown: HEK293 cells were transiently transfected with PP5-FLAG or active site point mutants and protein lysate extracted. Lysate was incubated with 0.01-10 μM biotin-P5 or biotin P-13 as indicated at 4° C. for 1 hr then added to streptavidin-conjugated agarose and incubated at 4° C. for 1 hr. Following three washes with fresh extraction buffer bound proteins were eluted in 5× Laemmli buffer and analyzed by Western blot. […] Samples were run by SDS PAGE, transferred to nitrocellulose membrane, and analyzed by Western blot.

[6] = target: T3, PP5-FLAG active site point mutants (Homo sapiens, UniProt P53041, R400A); experiment: as above; type: binding; settings: HEK293 lysate
T3 construct: expressed in transfected cells; host or cells: HEK293
T3 sequence (P53041 2-499 R400A): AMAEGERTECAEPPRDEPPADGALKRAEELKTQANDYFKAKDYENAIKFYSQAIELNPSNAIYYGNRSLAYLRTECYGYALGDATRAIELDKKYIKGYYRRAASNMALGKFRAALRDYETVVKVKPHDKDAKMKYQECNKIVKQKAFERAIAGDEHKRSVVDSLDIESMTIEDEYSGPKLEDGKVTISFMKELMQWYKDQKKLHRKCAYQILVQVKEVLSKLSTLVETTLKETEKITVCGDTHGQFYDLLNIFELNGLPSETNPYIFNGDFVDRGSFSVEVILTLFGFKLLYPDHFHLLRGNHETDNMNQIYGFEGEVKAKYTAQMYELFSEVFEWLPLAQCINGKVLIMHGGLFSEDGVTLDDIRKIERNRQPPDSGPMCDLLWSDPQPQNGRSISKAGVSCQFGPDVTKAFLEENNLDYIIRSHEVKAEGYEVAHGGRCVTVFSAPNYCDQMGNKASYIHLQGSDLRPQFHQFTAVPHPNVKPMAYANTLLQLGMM
Experimental: as §1, §2

PP5-FLAG = target: T4, PP5-FLAG (Homo sapiens, UniProt P53041); experiment: Biotin-P5 and biotin-P13 pulldown from HEK293 lysate; type: binding
T4 construct: expressed in transfected cells; host or cells: HEK293
T4 sequence (P53041 1-499): T1 sequence (P53041 1-499)
Experimental: as §2

PP2A = experiment: Biotin-P5 / biotin-P13 pulldown in 786-O lysate, co-pulldown of PP2A; type: binding, human; settings: cell lysate, 1 μM

Cc1ccc(NS(=O)(=O)c2c(C)noc2C)cc1C [Compound P13, (3,5-Dimethyl-4-isoxazolylsulfonyl)(3,4-xylyl)amine]
proliferation of 786-O cells (MTT) (786-O cells [1]): significantly inhibited the proliferation | cleavage of apoptotic markers caspase 3 and 8 and PARP (786-O cells [2]; 10 μM, 24 hrs): cleavage of the apoptotic markers caspase 3 and 8 and PARP | Kd (recombinant PP5-His6 [3]): 376 ± 60 nM | mode of PP5 inhibition (enzyme kinetics, Lineweaver-Burk) (recombinant PP5-His6 [4]): competitive inhibitors | Ki (recombinant PP5-His6 [4]; IC50 converted to Ki): 234 ± 50 nM

Cc1noc(C)c1S(=O)(=O)Nc1ccc(Cc2ccccc2)cc1 [Compound P053, (3,5-Dimethyl-4-isoxazolylsulfonyl)(p-benzylphenyl)amine]
cleavage of caspase 3 and PARP (786-O cells [2]; 10 μM, 24 hrs): increased cleavage | cleavage of caspase 8 versus caspase 9 (extrinsic apoptosis) (786-O cells [2]; 10 μM, 24 hrs): cleavage of caspase 8 but not caspase 9 | induction of apoptosis (cleaved PARP, cleaved caspase 8) (786-O cells [2]; 10 μM, 24 hrs): had the ability to induce apoptosis | cell death (PI staining) (VHL-null ccRCC cells): selectively caused cell death

COc1cc(OC)c(C=C2C(O)=Nc3ccccc32)c(OC)c1 [IC261, reference compound]
induction of extrinsic apoptosis (apoptotic markers) (786-O cells [2]; indicated amounts, 16 hrs): induced extrinsic apoptosis in a dose-dependent manner | S194-FADD phosphorylation (S194-FADD): increase in S194-FADD phosphorylation

CN1CCN(C(=O)C2C(C(=O)O)[C@H]3CC[C@@H]2O3)CC1 (stereo partly shown) [LB-100]
inhibition of PP5 (PP5): inhibit | inhibition of PP1 (PP1): inhibit

Cc1ccc(N(CCCNC(=O)CCC[C@@H]2SC[C@@H]3NC(=O)N[C@@H]32)S(=O)(=O)c2c(C)noc2C)cc1C [biotin-P13, 4-[(3aS,4S,6aR)-2-Oxo-hexahydro-1H-thieno[3,4-d]imidazol-4-yl]-N-(3-[N-(3,4-dimethylphenyl)3,5-dimethyl-1,2-oxazole-4-sulfonamido]propyl}butanamide]
binding of H304Q, M309C and W386F PP5 mutants [5]: unable to bind | binding of R275A and Y451F PP5 mutants compared to wild-type PP5 [5]: increased binding | binding of R400A PP5 mutant compared to wild-type PP5 [6]: reduced binding | binding to PP5-FLAG compared to biotin-P5 (PP5-FLAG; 10 μM): bound more | binding of PP5-FLAG to biotinylated compound (streptavidin pulldown) (PP5-FLAG; 0.01-10 μM): binds | binding to PP2A (PP2A): did not bind
